Laboratory results as given in article PMC8834506, “Optimization of Thymidine Kinase-Based Safety Switch for Neural Cell Therapy” (Cells, 2022).
Entries after “also recorded” stand apart in the source; their conditions may differ.

How the values were obtained:
[1] = tested on: Ki67-SR39h-expressing hESC transplanted into the striatum; test: In vivo prevention of tumor formation after striatal transplantation; parameters: species or system NOD/SCID mice; conditions: 40 mg/kg/day i.p., 47 days post-transplantation
Protocol: Given the encouraging in vitro results, we next investigated whether this newly developed safety switch system (SR39h and different nucleoside analogs) could prevent tumor formation in vivo. For this purpose, 20,000 undifferentiated Ki67-SR39h-expressing hESC were transplanted into the striatum of NOD/SCID mice. […] A group of control mice received only a NaCl solution. […] Human cytoplasmic marker (HCM) staining confirmed the human (i.e., hESC-derived) origin of these tumors. Tumors cells were predominantly Ki67 positive with a rosette organization as frequently found in tumors of the central nervous system.
Figure 7 in vivo validation of suicide gene and inducers. (A) Schematic diagram of the experimental setup to detect tumor elimination in vivo. NOD/SCID mice were transplanted with 20,000 SR39h-expressing hESC through stereotactic injection into the striatum. 48 h post transplantation, mice were intraperitoneally injected with the respective nucleoside (40 mg/kg) for five consecutive days a week during a two-week period. Control mice were treated with a NaCl solution. Mice were sacrificed 47 days post transplantation. (B) Cresyl violet staining of a brain section. […] (C) Immunostaining of brain coronal section (sections from ACV-, PCV-, and GCV-treated mice are shown in the upper, middle, and lower row, respectively). Staining with the proliferation marker Ki67 and with the human cytoplasmic marker (HCM) are shown in red and green, respectively. Nuclei were counterstained with DAPI (blue). White arrows show residual proliferative cells form the graft. A merge of the three staining is shown in the right column. Each experimental group consisted of five mice.
Single cell transplant: Undifferentiated HS420 (expressing TK variants) were detached by TrypLE and concentrated at 20,000 cells/μL in Stemflex. 20,000 cells (1 μL) were injected into the right striatum using a 26-G Hamilton syringe (Hamilton, BGB Analytik AG, Boeckten, Switzerland). Injection coordinates for striatum were: bregma = 0.6 mm, mediolateral = 2 mm, dorsoventral = 3 mm.
Thirty days after termination of treatment with the respective antiviral nucleoside analogs or control (NaCl), mice were sacrificed by intracardiac perfusion of paraformaldehyde 4% in PBS. Brains were removed from the skull and post-fixed in the same fixative overnight.
Paraffin embedded brains were sectioned (coronal sections 7 µm thick) and processed for hematoxylin and eosin or cresyl violet staining stain aiming morphological assessment of the graft. Sections were mounted in Eukitt (Kindler GmbH, Germany) and observed under microscope (see below)
The primary antibody diluted in PBS with 0.3% Triton was incubated at 4 °C overnight in agitation. […]

[2] = 10 mg/kg/day; cited from earlier work

**Q.** What does the source list for `Nc1nc(O)c2ncn(COC(CO)CO)c2n1` [GCV, ganciclovir]?
**A.** Tumor formation ([1]; five consecutive days a week for two weeks, from 2 days after transplantation, five mice per group): prevented tumor formation; also recorded: no major tumors; also recorded: impressive anti-tumor activities; Mice with a small nuclei-rich region at the graft site ([1]; cresyl violet staining): did not observe any structures resembling tumors; Side effects at the maximal recommended doses [2]: considerable side effects
